ChEMBL document CHEMBL1135084, “DNA cleavage by aromatic amines” (Bioorg Med Chem Lett, 2002)
Several values for one entry are separate records, joined by “and”; a condition that tells them apart may be missing. Equal values may be shown once.

Experiments:
Type in all cases: functional
Conditions in all cases: Enterobacteria phage phiX174
Nucleic Acid [1] = assay: Percent DNA cleavage induced by administering the compound (1.0 uM) within 12 hr to form RfII DNA was determined by using phiX174 bacteriophage DNA
Nucleic Acid [2] = assay: Percent DNA cleavage induced by administering the compound (1.0 uM) within 12 hr to form RfIII DNA was determined by using phiX174 bacteriophage DNA by using phiX174 bacteriophage DNA
Nucleic Acid [3] = assay: Percent DNA cleavage induced by administering the compound within 12 hr to form RfI DNA was determined by using phiX174 bacteriophage DNA
Nucleic Acid [4] = assay: Percent DNA cleavage induced by administering the compound (0.1 uM) within 48 hr to form RfII DNA was determined by using phiX174 bacteriophage DNA
Nucleic Acid [5] = assay: Percent DNA cleavage induced by administering the compound (0.1 uM), additive 10 mM aliquots of metal chlorides M2+/3- within 12 hr to form RfIII DNA was determined by using phiX174 bacteriophage DNA
Nucleic Acid [6] = assay: Percent DNA cleavage induced by administering the compound (0.1 uM), additive Ar/N2 within 12 hr to form RfII DNA was determined by using phiX174 bacteriophage DNA
Nucleic Acid [7] = assay: Percent DNA cleavage induced by administering the compound (0.1 uM), additive Ar/N2 within 12 hr to form RfIII DNA was determined by using phiX174 bacteriophage DNA
Nucleic Acid [8] = assay: Percent DNA cleavage induced by administering the compound (0.1 uM), additive 1000 uM distamycin A within 24 hr to form RfII DNA was determined by using phiX174 bacteriophage DNA
Nucleic Acid [9] = assay: Percent DNA cleavage induced by administering the compound (0.1 uM), additive 100 uM distamycin A within 24 hr to form RfII DNA was determined by using phiX174 bacteriophage DNA
Nucleic Acid [10] = assay: Percent DNA cleavage induced by administering the compound (0.1 uM), additive 100 uM distamycin A within 24 hr to form RfIII DNA was determined by using phiX174 bacteriophage DNA
Nucleic Acid [11] = assay: Percent DNA cleavage induced by administering the compound (0.1 uM) within 24 hr to form RfI DNA was determined by using phiX174 bacteriophage DNA
Nucleic Acid [12] = assay: Percent DNA cleavage induced by administering the compound (0.1 uM) within 24 hr to form RfIII DNA was determined by using phiX174 bacteriophage DNA
Nucleic Acid [13] = assay: Percent DNA cleavage induced by administering the compound (0.1 uM), additive 10 mM aliquots of metal chlorides M2+/3- within 12 hr to form RfII DNA was determined by using phiX174 bacteriophage DNA
Nucleic Acid [14] = assay: Percent DNA cleavage induced by administering the compound (0.1 uM), additive 10 uM distamycin A within 24 hr to form RfIII DNA was determined by using phiX174 bacteriophage DNA
Nucleic Acid [15] = assay: Percent DNA cleavage induced by administering the compound (0.1 uM), additive 1000 uM distamycin A within 24 hr to form RfI DNA was determined by using phiX174 bacteriophage DNA
Nucleic Acid [16] = assay: Percent DNA cleavage induced by administering the compound (0.1 uM), additive 10 mM aliquots of metal chlorides M2+/3- within 12 hr to form RfI DNA was determined by using phiX174 bacteriophage DNA
Nucleic Acid [17] = assay: Percent DNA cleavage induced by administering the compound (0.1 uM), additive 10 uM distamycin A within 24 hr to form RfII DNA was determined by using phiX174 bacteriophage DNA
Nucleic Acid [18] = assay: Percent DNA cleavage induced by administering the compound (0.1uM), additive 10 uM distamycin A within 24 hr to form RfI DNA was determined by using phiX174 bacteriophage DNA
Nucleic Acid [19] = assay: Percent DNA cleavage induced by administering the compound (0.1 uM) within 24 hr to form RfII DNA was determined by using phiX174 bacteriophage DNA
Nucleic Acid [20] = assay: Percent DNA cleavage induced by administering the compound (0.1 uM), additive 100 uM distamycin A within 24 hr to form RfI DNA was determined by using phiX174 bacteriophage DNA
Nucleic Acid [21] = assay: Percent DNA cleavage induced by administering the compound (0.1 uM) within 48 hr to form RfIII DNA was determined by using phiX174 bacteriophage DNA
Nucleic Acid [22] = assay: Percent DNA cleavage induced by administering the compound (0.1 uM), additive Ar/N2 within 12 hr to form RfI DNA was determined by using phiX174 bacteriophage DNA
Nucleic Acid [23] = assay: Percent DNA cleavage induced by administering the compound (0.1 uM) within 48 hr to form RfI DNA was determined by using phiX174 bacteriophage DNA
Nucleic Acid [24] = assay: Percent DNA cleavage induced by administering the compound (0.1 uM), additive 1000 uM distamycin A within 24 hr to form RfIII DNA was determined by using phiX174 bacteriophage DNA
Nucleic Acid [25] = assay: Percent DNA cleavage induced by administering the compound (0.1 uM) within 24hto form RfIII DNA was determined by using phiX174 bacteriophage DNA
Nucleic Acid [26] = assay: Percent DNA cleavage induced by administering the compound (1.0 uM) within 12 hr to form RfIII DNA was determined by using phiX174 bacteriophage DNA
Nucleic Acid [27] = assay: Percent DNA cleavage induced by administering the compound (1.0 uM) within 12 hr to form RfI DNA was determined by using phiX174 bacteriophage DNA
Nucleic Acid [28] = assay: Percent DNA cleavage induced by administering the compound (0.1 uM) within 12 hr to form RfIII DNA was determined by using phiX174 bacteriophage DNA
Nucleic Acid [29] = assay: Percent DNA cleavage induced by administering the compound (0.1 uM) within 12 hr to form RfI DNA was determined by using phiX174 bacteriophage DNA
Nucleic Acid [30] = assay: Percent DNA cleavage induced by administering the compound (0.1 uM) within 12 hr to form RfII DNA was determined by using phiX174 bacteriophage DNA
Nucleic Acid [31] = assay: Percent DNA cleavage induced by administering the compound (1.0 uM) within 48 hr to form RfIII DNA was determined by using phiX174 bacteriophage DNA
Nucleic Acid [32] = assay: Percent DNA cleavage induced by administering the compound (1.0 uM) within 48 hr to form RfI DNA was determined by using phiX174 bacteriophage DNA
Nucleic Acid [33] = assay: Percent DNA cleavage induced by administering the compound (1.0 uM) within 48 hr to form RfII DNA was determined by using phiX174 bacteriophage DNA

CCOC(=O)c1cc(N)cc([N+](=O)[O-])c1
Cleavage (Nucleic Acid [1]): 10%
Cleavage (Nucleic Acid [2]): 0%
Cleavage (Nucleic Acid [3]): 90%

Nc1cccc(C(=O)Nc2cc(NC(=O)c3ccccc3)cc(C(=O)NCCCNC(=O)c3cc(NC(=O)c4ccccc4)cc(NC(=O)c4cccc(N)c4)c3)c2)c1
Cleavage (Nucleic Acid [4]): 99%
Cleavage (Nucleic Acid [5]): 0%
Cleavage (Nucleic Acid [6]): 74%
Cleavage (Nucleic Acid [7]): 0%
Cleavage (Nucleic Acid [8]): 5%
Cleavage (Nucleic Acid [9]): 35%
Cleavage (Nucleic Acid [10]): 0%
Cleavage (Nucleic Acid [11]): 24%
Cleavage (Nucleic Acid [12]): 0%
Cleavage (Nucleic Acid [13]): 73%
Cleavage (Nucleic Acid [14]): 0%
Cleavage (Nucleic Acid [15]): 95%
Cleavage (Nucleic Acid [16]): 27%
Cleavage (Nucleic Acid [17]): 75%
Cleavage (Nucleic Acid [18]): 25%
Cleavage (Nucleic Acid [19]): 76%
Cleavage (Nucleic Acid [20]): 65%
Cleavage (Nucleic Acid [21]): 0%
Cleavage (Nucleic Acid [22]): 26%
Cleavage (Nucleic Acid [23]): 1%
Cleavage (Nucleic Acid [24]): 0%

COc1cc(N)cc(C(=O)Nc2cc(NC(=O)c3ccccc3)cc(C(=O)NCCNC(=O)c3cc(NC(=O)c4ccccc4)cc(NC(=O)c4cc(N)cc(OC)c4)c3)c2)c1
Cleavage (Nucleic Acid [25]): 0% and 1%

Nc1cccc(C(=O)Nc2cc(NC(=O)c3ccccc3)cc(C(=O)NCCCCCNC(=O)c3cc(NC(=O)c4ccccc4)cc(NC(=O)c4cccc(N)c4)c3)c2)c1
Cleavage (Nucleic Acid [11]): 35%
Cleavage (Nucleic Acid [12]): 0%
Cleavage (Nucleic Acid [19]): 65%

CCOC(=O)c1cc(NC(=O)c2cccc([N+](=O)[O-])c2)cc(NC(=O)c2cc(N)cc([N+](=O)[O-])c2)c1
Cleavage (Nucleic Acid [1]): 56%
Cleavage (Nucleic Acid [26]): 0%
Cleavage (Nucleic Acid [27]): 44%

CCOC(=O)c1cc(NC(=O)c2cc(N)cc(OC)c2)cc(NC(=O)c2cccc([N+](=O)[O-])c2)c1
Cleavage (Nucleic Acid [1]): 89%
Cleavage (Nucleic Acid [26]): 0%
Cleavage (Nucleic Acid [27]): 11%

Nc1cccc(C(=O)Nc2cc(NC(=O)c3ccccc3)cc(C(=O)NCCCCNC(=O)c3cc(NC(=O)c4ccccc4)cc(NC(=O)c4cccc(N)c4)c3)c2)c1
Cleavage (Nucleic Acid [28]): 0%
Cleavage (Nucleic Acid [29]): 37%
Cleavage (Nucleic Acid [30]): 63%

CCOC(=O)c1cc(NC(=O)c2cccc(N)c2)cc(NC(=O)c2cccc([N+](=O)[O-])c2)c1
Cleavage (Nucleic Acid [31]): 25%
Cleavage (Nucleic Acid [1]): 99%
Cleavage (Nucleic Acid [26]): 0%
Cleavage (Nucleic Acid [32]): 0%
Cleavage (Nucleic Acid [27]): 1%
Cleavage (Nucleic Acid [33]): 75%

Nc1cccc(C(=O)Nc2cc(NC(=O)c3ccccc3)cc(C(=O)NCNC(=O)c3cc(NC(=O)c4ccccc4)cc(NC(=O)c4cccc(N)c4)c3)c2)c1
Cleavage (Nucleic Acid [11]): 0%
Cleavage (Nucleic Acid [12]): 0%
Cleavage (Nucleic Acid [19]): 100%

Nc1cccc(C(=O)Nc2cc(NC(=O)c3ccccc3)cc(C(=O)NCCCCCCNC(=O)c3cc(NC(=O)c4ccccc4)cc(NC(=O)c4cccc(N)c4)c3)c2)c1
Cleavage (Nucleic Acid [28]): 0%
Cleavage (Nucleic Acid [29]): 38%
Cleavage (Nucleic Acid [30]): 62%

Nc1cccc(C(=O)Nc2cc(NC(=O)c3ccccc3)cc(C(=O)NCCNC(=O)c3cc(NC(=O)c4ccccc4)cc(NC(=O)c4cccc(N)c4)c3)c2)c1
Cleavage (Nucleic Acid [4]): 93%
Cleavage (Nucleic Acid [11]): 35%
Cleavage (Nucleic Acid [12]): 0%
Cleavage (Nucleic Acid [19]): 65%
Cleavage (Nucleic Acid [21]): 0%
Cleavage (Nucleic Acid [23]): 7%

Nc1cc(C(=O)Nc2cc(NC(=O)c3ccccc3)cc(C(=O)NCCNC(=O)c3cc(NC(=O)c4ccccc4)cc(NC(=O)c4cc(N)cc([N+](=O)[O-])c4)c3)c2)cc([N+](=O)[O-])c1
Cleavage (Nucleic Acid [4]): 90%
Cleavage (Nucleic Acid [11]): 36%
Cleavage (Nucleic Acid [12]): 0%
Cleavage (Nucleic Acid [19]): 64%
Cleavage (Nucleic Acid [21]): 0%
Cleavage (Nucleic Acid [23]): 10%
